Where “and” joins values, the source holds several entries; their conditions need not be identical. Equal values may be shown once.
Experiments:
Calu-6 cells = experiment: Compounds cellular killing in Calu-6 cancer line (Cell Titer-Glo, 6 days); assay type: cell-based, human; conditions: 6 days incubation, cell viability by Cell Titer-Glo; for EC50 / Emax: Homo sapiens, Calu-6, 144 h
Method: (§1) Calu-6 (ATCC, HTB-56). […] The base medium for Calu-6 is Eagle's Minimum Essential Medium (ATCC, 30-2003). To make the complete growth medium, fetal bovine serum was added to the base mediumat a final concentration of 10% (Gibco, 10099-141C). The cell line was grown in a humidified 5% CO2 atmosphere at 37° C., and was regularly tested for the presence of mycoplasma with MycoAlert™ PLUS Mycoplasma Detection Kit (Lonza, LT07-710).
(§2) Payload direct killing by compounds 1-1 to 1-22 was assessed in A375 and Calu-6 cancer cell lines. Cells were seeded at 1E3/well (A375) 2E3/well (Calu-6) into 96-well plates (Greiner: 655090), 100 μL/well, and incubated at 37° C., 5% CO2, overnight. Fresh growth medium was added containing varying concentrations of compounds, 50 μL/well, and incubated at 37° C., 5% CO2, for 6 days. The cell viability detected by Cell Titer-Glo (Promega, G7573), 70 μL/well. The plates were allowed to incubate at room temperature for 10 minutes to stabilize the luminescent signal. The plates were analyzed with a microplate reader.

A375 cells = experiment: Compounds cellular killing in A375 cancer line (Cell Titer-Glo, 6 days); assay type: cell-based, human; conditions: 6 days incubation, cell viability by Cell Titer-Glo; for EC50 / Emax: Homo sapiens, A-375, 144 h
Method: as §1, with “A375” for “Calu-6”, “CRL-1619).” for “HTB-56).”, “DMEM, high glucose, GlutaMAX™ Supplement (Gibco, 10566024).” for “Eagle's Minimum Essential Medium (ATCC, 30-2003).”
as §2

COc1cc2c(cc1OCc1cc(O)cc(COc3cc4c(cc3OC)C(=O)N3CC5(CC5)C[C@H]3C=N4)c1)N=C[C@@H]1CC3(CC3)CN1C2=O [Compound 1-18, (11aS,11a″S)-8,8″-(((5-hydroxy-1,3-phenylene)bis(methylene))bis(oxy))bis(7-methoxy-1,11a-dihydro-3H,5H-spiro[benzo[e]pyrrolo[1,2-a][1,4]diazepine-2,1′-cyclopropan]-5-one)]
EC50 (Calu-6 cells): 0.126 nM | Emax (Calu-6 cells): 89.8% | EC50 (A375 cells): 0.398 nM | Emax (A375 cells): 80.3%

COc1cc2c(cc1OCc1cccc(COc3cc4c(cc3OC)C(=O)N3CC5(CC5)C[C@H]3C=N4)n1)N=C[C@@H]1CC3(CC3)CN1C2=O [Compound 1-17, (11aS,11a″S)-8,8″-((pyridine-2,6-diylbis(methylene))bis(oxy))bis(7-methoxy-1,11a-dihydro-3H,5H-spiro[benzo[e]pyrrolo[1,2-a][1,4]diazepine-2,1′-cyclopropan]-5-one)]
EC50 (Calu-6 cells): 0.005 nM | Emax (Calu-6 cells): 99.7% | EC50 (A375 cells): 0.017 nM | Emax (A375 cells): 99.9%

COc1cc2c(cc1OCCCOc1cc3c(cc1OC)C(=O)N1CC4(CC4)C[C@H]1C=N3)N=C[C@@H]1Cc3ccccc3CN1C2=O [Compound 1-14, (S)-2-methoxy-3-(3-(((S)-7-methoxy-5-oxo-5,11a-dihydro-1H,3H-spiro[benzo[e]pyrrolo[1,2-a][1,4]diazepine-2,1′-cyclopropan]-8-yl)oxy)propoxy)-7,12-dihydrobenzo[5,6][1,4]diazepino[1,2-b]isoquinolin-14(6aH)-one]
EC50 (Calu-6 cells): 0.01 nM | Emax (Calu-6 cells): 99.2% | EC50 (A375 cells): 0.033 nM | Emax (A375 cells): 98.9%

COc1cc2c(cc1OCCOCCOc1cc3c(cc1OC)C(=O)N1CC4(CC4)C[C@H]1C=N3)N=C[C@@H]1Cc3ccccc3CN1C2=O [Compound 1-5, (S)-2-methoxy-3-(2-(2-(((S)-7-methoxy-5-oxo-5,11a-dihydro-1H,3H-spiro[benzo[e]pyrrolo[1,2-a][1,4]diazepine-2,1′-cyclopropan]-8-yl)oxy)ethoxy)ethoxy)-7,12-dihydrobenzo[5,6][1,4]diazepino[1,2-b]isoquinolin-14(6aH)-one]
EC50 (Calu-6 cells): 0.165 nM | Emax (Calu-6 cells): 90.8% | EC50 (A375 cells): > 1 nM | Emax (A375 cells): 39.2%

COc1cc2c(cc1OCC13CC(COc4cc5c(cc4OC)C(=O)N4Cc6ccccc6C[C@H]4CN5)(C1)C3)N=C[C@@H]1CC3(CC3)CN1C2=O [Compound 1-12, (S)-2-methoxy-3-((3-((((S)-7-methoxy-5-oxo-5,11a-dihydro-1H,3H-spiro[benzo[e]pyrrolo[1,2-a][1,4]diazepine-2,1′-cyclopropan]-8-yl)oxy)methyl)bicyclo[1.1.1]pentan-1-yl)methoxy)-6,6a,7,12-tetrahydrobenzo[5,6][1,4]diazepino[1,2-b]isoquinolin-14(5H)-one]
EC50 (Calu-6 cells): 108 nM | Emax (Calu-6 cells): 99.4% | EC50 (A375 cells): 297 nM | Emax (A375 cells): 97.5%

COc1cc2c(cc1OCc1cccc(COc3cc4c(cc3OC)C(=O)N3CC5(CC5)C[C@H]3CN4)c1)N=C[C@@H]1CC3(CC3)CN1C2=O [Compound 1-9, (S)-7-methoxy-8-((3-((((S)-7-methoxy-5-oxo-5,11a-dihydro-1H,3H-spiro[benzo[e]pyrrolo[1,2-a][1,4]diazepine-2,1′-cyclopropan]-8-yl)oxy)methyl)benzyl)oxy)-1,10,11,11a-tetrahydro-3H,5H-spiro[benzo[e]pyrrolo[1,2-a][1,4]diazepine-2,1′-cyclopropan]-5-one]
EC50 (Calu-6 cells): 0.002 nM | Emax (Calu-6 cells): 99.7% | EC50 (A375 cells): 0.01 nM | Emax (A375 cells): 99.9%

C=C1C[C@H]2C=Nc3cc(OCCNCCOc4cc5c(cc4OC)C(=O)N4CC(=C)C[C@H]4C=N5)c(OC)cc3C(=O)N2C1 [Compound 1-21, (11aS,11a'S)-8,8′-((azanediylbis(ethane-2,1-diyl))bis(oxy))bis(7-methoxy-2-methylene-1,2,3,11a-tetrahydro-5H-benzo[e]pyrrolo[1,2-a][1,4]diazepin-5-one)]
EC50 (Calu-6 cells): 1.2 nM | Emax (Calu-6 cells): 99.3% | EC50 (A375 cells): 4.2 nM | Emax (A375 cells): 97.8%

C=C1C[C@H]2C=Nc3cc(OCCN(C)CCOc4cc5c(cc4OC)C(=O)N4CC(=C)C[C@H]4C=N5)c(OC)cc3C(=O)N2C1 [Compound 1-22, (11aS,11a′S)-8,8′-(((methylazanediyl)bis(ethane-2,1-diyl))bis(oxy))bis(7-methoxy-2-methylene-1,2,3,11a-tetrahydro-5H-benzo[e]pyrrolo[1,2-a][1,4]diazepin-5-one)]
EC50 (Calu-6 cells): 1.3 nM | Emax (Calu-6 cells): 99.2% | EC50 (A375 cells): 5.5 nM | Emax (A375 cells): 97.3%

COc1cc2c(cc1OCCCCCOc1cc3c(cc1OC)C(=O)N1Cc4ccccc4C[C@H]1CN3)N=C[C@@H]1CC3(CC3)CN1C2=O [Compound 1-2, (S)-2-methoxy-3-((5-(((S)-7-methoxy-5-oxo-5,11a-dihydro-1H,3H-spiro[benzo[e]pyrrolo[1,2-a][1,4]diazepine-2,1′-cyclopropan]-8-yl)oxy)pentyl)oxy)-6,6a,7,12-tetrahydrobenzo[5,6][1,4]diazepino[1,2-b]isoquinolin-14(5H)-one]
EC50 (Calu-6 cells): 0.052 nM | Emax (Calu-6 cells): 97.6% | EC50 (A375 cells): 0.118 nM | Emax (A375 cells): 98%

COc1ccc(C2=CN3C(=O)c4cc(OC)c(OCCCCCOc5cc6c(cc5OC)C(=O)N5CCC7(CC7)C[C@H]5C=N6)cc4NC[C@@H]3C2)cc1 [Compound 1-6, (S)-2-methoxy-3-((5-(((S)-7-methoxy-2-(4-methoxyphenyl)-5-oxo-5,10,11,11a-tetrahydro-1H-benzo[e]pyrrolo[1,2-a][1,4]diazepin-8-yl)oxy)pentyl)oxy)-6a,7,9,10-tetrahydro-12H-spiro[benzo[e]pyrido[1,2-a][1,4]diazepine-8,1′-cyclopropan]-12-one]
EC50 (Calu-6 cells): 0.033 nM | Emax (Calu-6 cells): 97.6% | EC50 (A375 cells): 0.067 nM | Emax (A375 cells): 97.5%

COc1cc2c(cc1OCCCCCOc1cc3c(cc1OC)C(=O)N1C=C(C)C[C@H]1C=N3)N=C[C@@H]1CC(C)=CN1C2=O [Ref-1-1, reference compound]
Calu-6 Emax (%) (Calu-6 cells): 99.8% and 99.3% and 93.1% | Emax (Calu-6 cells): 99.5% | A375 Emax (%) (A375 cells): 99.9% and 99.6% | Emax (A375 cells): 99.8%

COc1cc2c(cc1OCC13CC(COc4cc5c(cc4OC)C(=O)N4CC6(CC6)C[C@H]4C=N5)(C1)C3)N=C[C@@H]1Cc3ccccc3CN1C2=O [Compound 1-11, (S)-2-methoxy-3-((3-((((S)-7-methoxy-5-oxo-5,11a-dihydro-1H,3H-spiro[benzo[e]pyrrolo[1,2-a][1,4]diazepine-2,1′-cyclopropan]-8-yl)oxy)methyl)bicyclo[1.1.1]pentan-1-yl)methoxy)-7,12-dihydrobenzo[5,6][1,4]diazepino[1,2-b]isoquinolin-14(6aH)-one]
EC50 (Calu-6 cells): 0.34 nM | Emax (Calu-6 cells): 99.4% | EC50 (A375 cells): 6.11 nM | Emax (A375 cells): 99.9%

COc1cc2c(cc1OCCCCCOc1cc3c(cc1OC)C(=O)N1CC4(CC4)C[C@H]1CN3)NC[C@@H]1Cc3ccccc3CN1C2=O [Compound 1-4, (S)-2-methoxy-3-((5-(((S)-7-methoxy-5-oxo-5,10,11,11a-tetrahydro-1H,3H-spiro[benzo[e]pyrrolo[1,2-a][1,4]diazepine-2,1′-cyclopropan]-8-yl)oxy)pentyl)oxy)-6,6a,7,12-tetrahydrobenzo[5,6][1,4]diazepino[1,2-b]isoquinolin-14(5H)-one]
EC50 (Calu-6 cells): 0.077 nM | Emax (Calu-6 cells): 94.9% | EC50 (A375 cells): 0.14 nM | Emax (A375 cells): 90.6%

COc1cc2c(cc1OCCCCCOc1cc3c(cc1OC)C(=O)N1CC4(CC4)C[C@H]1CN3)N=C[C@@H]1Cc3ccccc3CN1C2=O [Compound 1-3, (S)-2-methoxy-3-((5-(((S)-7-methoxy-5-oxo-5,10,11,11a-tetrahydro-1H,3H-spiro[benzo[e]pyrrolo[1,2-a][1,4]diazepine-2,1′-cyclopropan]-8-yl)oxy)pentyl)oxy)-7,12-dihydrobenzo[5,6][1,4]diazepino[1,2-b]isoquinolin-14(6aH)-one]
EC50 (Calu-6 cells): 0.001 nM | Emax (Calu-6 cells): 99.3% | EC50 (A375 cells): 0.002 nM | Emax (A375 cells): 99.9%

COc1cc2c(cc1OCc1cccc(COc3cc4c(cc3OC)C(=O)N3CC5(CC5)C[C@H]3C=N4)c1)N=C[C@@H]1CC3(CC3)CN1C2=O [Compound 1-8, (11aS,11a″S)-8,8″-((1,3-phenylenebis(methylene))bis(oxy))bis(7-methoxy-1,11a-dihydro-3H,5H-spiro[benzo[e]pyrrolo[1,2-a][1,4]diazepine-2,1′-cyclopropan]-5-one)]
EC50 (Calu-6 cells): 0.005 nM | Emax (Calu-6 cells): 98.4% | EC50 (A375 cells): 0.029 nM | Emax (A375 cells): 99.2%

COc1cc2c(cc1OC/C=C/CCOc1cc3c(cc1OC)C(=O)N1CC4(CC4)C[C@H]1C=N3)N=C[C@@H]1CC3(CC3)CN1C2=O [Compound 1-19, (11aS,11a″S)-8,8″-(((E)-pent-2-ene-1,5-diyl)bis(oxy))bis(7-methoxy-1,11a-dihydro-3H,5H-spiro[benzo[e]pyrrolo[1,2-a][1,4]diazepine-2,1′-cyclopropan]-5-one)]
EC50 (Calu-6 cells): 0.052 nM | Emax (Calu-6 cells): 90.6% | EC50 (A375 cells): 0.165 nM | Emax (A375 cells): 88.7%

— patent US20260027221A1, “Targeted Pyrrolobenzodiazapine Conjugates” (BeOne Medicines I GmbH, priority 2023, published 2026)
